Measurements taken from ChEMBL document CHEMBL5291721, “A preclinical secondary pharmacology resource illuminates target-adverse drug reaction associations of marketed drugs” (Nat Commun, 2023).
One block for each compound: values may come before it.

Assays:
Adenosine receptor A1 = molecular target: T1, Adenosine receptor A1 (Homo sapiens, UniProt P30542)
T1 sequence (P30542 whole entry): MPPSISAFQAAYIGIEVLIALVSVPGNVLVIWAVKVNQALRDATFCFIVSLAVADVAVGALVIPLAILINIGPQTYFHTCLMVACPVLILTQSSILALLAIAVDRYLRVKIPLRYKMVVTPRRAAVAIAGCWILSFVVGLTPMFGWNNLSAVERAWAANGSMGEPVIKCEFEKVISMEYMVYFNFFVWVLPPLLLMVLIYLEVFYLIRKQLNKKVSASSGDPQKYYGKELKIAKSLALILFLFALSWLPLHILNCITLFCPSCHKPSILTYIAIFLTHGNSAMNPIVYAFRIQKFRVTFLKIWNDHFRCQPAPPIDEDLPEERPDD

D(3) dopamine receptor [1] = molecular target: T2, D(3) dopamine receptor (Homo sapiens, UniProt P35462)
T2 sequence (P35462 whole entry): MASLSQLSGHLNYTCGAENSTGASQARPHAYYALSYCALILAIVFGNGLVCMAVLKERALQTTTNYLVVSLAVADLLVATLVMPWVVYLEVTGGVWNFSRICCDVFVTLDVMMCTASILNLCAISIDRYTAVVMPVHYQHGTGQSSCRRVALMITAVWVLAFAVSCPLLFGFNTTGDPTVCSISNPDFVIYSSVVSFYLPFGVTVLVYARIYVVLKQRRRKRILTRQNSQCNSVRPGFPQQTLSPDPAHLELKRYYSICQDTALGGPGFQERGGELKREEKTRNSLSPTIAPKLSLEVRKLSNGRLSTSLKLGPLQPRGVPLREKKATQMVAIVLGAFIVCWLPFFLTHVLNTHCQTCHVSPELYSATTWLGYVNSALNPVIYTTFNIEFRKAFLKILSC

[2] = molecular target: Sodium-dependent noradrenaline transporter (Homo sapiens, UniProt P23975)
Sodium-dependent noradrenaline transporter, sequence (P23975 whole entry): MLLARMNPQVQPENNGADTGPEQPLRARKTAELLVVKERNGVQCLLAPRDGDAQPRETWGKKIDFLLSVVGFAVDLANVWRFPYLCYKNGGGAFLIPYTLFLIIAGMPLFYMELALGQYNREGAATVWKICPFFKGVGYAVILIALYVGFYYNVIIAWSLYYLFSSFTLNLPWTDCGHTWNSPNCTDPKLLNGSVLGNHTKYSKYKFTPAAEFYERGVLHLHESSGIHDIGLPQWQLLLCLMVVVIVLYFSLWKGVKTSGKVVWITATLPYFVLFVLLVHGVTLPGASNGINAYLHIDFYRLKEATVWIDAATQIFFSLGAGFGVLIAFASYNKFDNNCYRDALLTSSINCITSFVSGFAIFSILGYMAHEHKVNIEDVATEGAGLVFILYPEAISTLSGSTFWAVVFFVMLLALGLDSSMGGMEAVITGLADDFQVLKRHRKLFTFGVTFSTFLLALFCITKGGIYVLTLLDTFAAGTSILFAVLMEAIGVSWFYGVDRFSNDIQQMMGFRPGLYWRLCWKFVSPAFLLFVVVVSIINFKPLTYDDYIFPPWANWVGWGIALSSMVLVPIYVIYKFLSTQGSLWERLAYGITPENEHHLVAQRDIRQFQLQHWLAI

D(3) dopamine receptor [3] = molecular target: T2, D(3) dopamine receptor; remark: listed apart in the source
[4] = molecular target: T3, 5-hydroxytryptamine receptor 1A (Homo sapiens, UniProt P08908); assay type: functional, cell-based
T3 sequence (P08908 whole entry): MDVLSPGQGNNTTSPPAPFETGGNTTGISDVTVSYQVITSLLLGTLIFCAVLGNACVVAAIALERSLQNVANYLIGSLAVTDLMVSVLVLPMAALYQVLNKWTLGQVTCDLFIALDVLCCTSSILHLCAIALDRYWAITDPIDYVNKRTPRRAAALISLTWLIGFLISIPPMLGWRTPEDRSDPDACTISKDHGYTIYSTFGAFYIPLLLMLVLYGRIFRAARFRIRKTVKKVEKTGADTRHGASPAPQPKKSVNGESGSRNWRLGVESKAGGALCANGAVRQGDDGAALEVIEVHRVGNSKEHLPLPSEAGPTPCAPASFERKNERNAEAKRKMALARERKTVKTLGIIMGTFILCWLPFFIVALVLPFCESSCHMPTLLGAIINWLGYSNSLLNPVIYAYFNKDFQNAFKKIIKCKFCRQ

Melanocortin receptor 3 = Melanocortin receptor 3 (Homo sapiens, UniProt P41968)
Melanocortin receptor 3, sequence (P41968 whole entry): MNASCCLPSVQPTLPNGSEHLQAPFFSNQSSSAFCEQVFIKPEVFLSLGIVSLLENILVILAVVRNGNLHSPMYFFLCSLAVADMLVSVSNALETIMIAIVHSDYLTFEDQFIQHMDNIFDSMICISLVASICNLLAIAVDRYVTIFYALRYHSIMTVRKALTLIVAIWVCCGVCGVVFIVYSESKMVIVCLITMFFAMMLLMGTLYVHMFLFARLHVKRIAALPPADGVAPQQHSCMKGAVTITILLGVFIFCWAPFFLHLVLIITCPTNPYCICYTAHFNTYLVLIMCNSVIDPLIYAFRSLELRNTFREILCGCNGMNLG

[5] = molecular target: Kappa-type opioid receptor (Homo sapiens, UniProt P41145)
Kappa-type opioid receptor, sequence (P41145 whole entry): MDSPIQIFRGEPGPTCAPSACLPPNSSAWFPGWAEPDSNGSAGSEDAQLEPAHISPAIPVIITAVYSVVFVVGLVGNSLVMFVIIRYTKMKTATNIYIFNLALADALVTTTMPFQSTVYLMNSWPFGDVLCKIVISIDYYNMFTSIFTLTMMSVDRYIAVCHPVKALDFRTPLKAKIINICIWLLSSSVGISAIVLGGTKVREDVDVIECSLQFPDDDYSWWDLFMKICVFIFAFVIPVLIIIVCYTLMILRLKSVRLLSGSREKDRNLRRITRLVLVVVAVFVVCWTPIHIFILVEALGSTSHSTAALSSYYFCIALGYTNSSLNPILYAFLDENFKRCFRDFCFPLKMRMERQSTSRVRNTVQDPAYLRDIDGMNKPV

[6] = molecular target: T4, Alpha-2A adrenergic receptor (Homo sapiens, UniProt P08913); assay type: functional, cell-based
T4 sequence (P08913 whole entry): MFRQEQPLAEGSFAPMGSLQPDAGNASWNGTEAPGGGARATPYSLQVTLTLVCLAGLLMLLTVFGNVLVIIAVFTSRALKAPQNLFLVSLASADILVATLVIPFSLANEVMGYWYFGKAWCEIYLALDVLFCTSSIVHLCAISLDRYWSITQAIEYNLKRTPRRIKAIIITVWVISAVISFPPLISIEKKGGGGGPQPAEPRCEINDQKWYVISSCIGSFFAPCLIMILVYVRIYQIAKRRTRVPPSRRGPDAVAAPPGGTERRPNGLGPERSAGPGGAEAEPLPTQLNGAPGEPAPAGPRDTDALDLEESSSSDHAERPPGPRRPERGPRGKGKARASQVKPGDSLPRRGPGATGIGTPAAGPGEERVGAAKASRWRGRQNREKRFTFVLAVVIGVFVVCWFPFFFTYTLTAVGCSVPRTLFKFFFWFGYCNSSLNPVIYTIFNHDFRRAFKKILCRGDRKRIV

[7] = molecular target: T5, Alpha-1A adrenergic receptor (Homo sapiens, UniProt P35348)
T5 sequence (P35348 whole entry): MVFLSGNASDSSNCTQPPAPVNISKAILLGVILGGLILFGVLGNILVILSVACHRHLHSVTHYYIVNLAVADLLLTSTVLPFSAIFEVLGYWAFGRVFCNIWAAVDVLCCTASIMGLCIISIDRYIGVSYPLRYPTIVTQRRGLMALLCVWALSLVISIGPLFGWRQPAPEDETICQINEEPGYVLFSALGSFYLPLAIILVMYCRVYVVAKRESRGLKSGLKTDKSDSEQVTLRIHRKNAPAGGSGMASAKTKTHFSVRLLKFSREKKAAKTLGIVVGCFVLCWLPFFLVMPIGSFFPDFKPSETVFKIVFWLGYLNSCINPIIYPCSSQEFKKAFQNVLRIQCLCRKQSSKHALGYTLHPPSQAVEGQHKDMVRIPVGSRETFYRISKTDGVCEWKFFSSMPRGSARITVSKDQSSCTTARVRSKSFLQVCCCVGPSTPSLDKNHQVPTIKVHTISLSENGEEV

[8] = molecular target: Neuronal acetylcholine receptor subunit alpha-4 (Homo sapiens, UniProt P43681)
Neuronal acetylcholine receptor subunit alpha-4, sequence (P43681 whole entry): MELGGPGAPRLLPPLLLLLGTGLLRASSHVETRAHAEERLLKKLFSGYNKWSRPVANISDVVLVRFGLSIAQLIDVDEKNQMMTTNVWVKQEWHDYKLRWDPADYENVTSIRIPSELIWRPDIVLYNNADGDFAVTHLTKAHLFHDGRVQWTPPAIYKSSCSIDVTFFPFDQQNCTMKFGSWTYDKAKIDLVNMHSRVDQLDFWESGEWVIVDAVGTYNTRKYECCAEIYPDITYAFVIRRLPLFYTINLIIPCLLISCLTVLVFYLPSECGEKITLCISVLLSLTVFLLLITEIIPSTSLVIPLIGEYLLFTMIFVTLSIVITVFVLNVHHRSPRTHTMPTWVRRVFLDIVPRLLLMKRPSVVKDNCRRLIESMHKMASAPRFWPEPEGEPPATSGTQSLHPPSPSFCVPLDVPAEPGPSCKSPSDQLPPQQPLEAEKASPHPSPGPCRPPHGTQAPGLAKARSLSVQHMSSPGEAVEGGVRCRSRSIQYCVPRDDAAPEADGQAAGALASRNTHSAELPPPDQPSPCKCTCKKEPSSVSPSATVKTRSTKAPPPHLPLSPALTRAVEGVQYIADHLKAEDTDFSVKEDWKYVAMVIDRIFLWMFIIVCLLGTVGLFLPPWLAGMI

Androgen receptor = molecular target: T6, Androgen receptor (Rattus norvegicus, UniProt P15207); assay type: functional
T6 sequence (P15207 whole entry): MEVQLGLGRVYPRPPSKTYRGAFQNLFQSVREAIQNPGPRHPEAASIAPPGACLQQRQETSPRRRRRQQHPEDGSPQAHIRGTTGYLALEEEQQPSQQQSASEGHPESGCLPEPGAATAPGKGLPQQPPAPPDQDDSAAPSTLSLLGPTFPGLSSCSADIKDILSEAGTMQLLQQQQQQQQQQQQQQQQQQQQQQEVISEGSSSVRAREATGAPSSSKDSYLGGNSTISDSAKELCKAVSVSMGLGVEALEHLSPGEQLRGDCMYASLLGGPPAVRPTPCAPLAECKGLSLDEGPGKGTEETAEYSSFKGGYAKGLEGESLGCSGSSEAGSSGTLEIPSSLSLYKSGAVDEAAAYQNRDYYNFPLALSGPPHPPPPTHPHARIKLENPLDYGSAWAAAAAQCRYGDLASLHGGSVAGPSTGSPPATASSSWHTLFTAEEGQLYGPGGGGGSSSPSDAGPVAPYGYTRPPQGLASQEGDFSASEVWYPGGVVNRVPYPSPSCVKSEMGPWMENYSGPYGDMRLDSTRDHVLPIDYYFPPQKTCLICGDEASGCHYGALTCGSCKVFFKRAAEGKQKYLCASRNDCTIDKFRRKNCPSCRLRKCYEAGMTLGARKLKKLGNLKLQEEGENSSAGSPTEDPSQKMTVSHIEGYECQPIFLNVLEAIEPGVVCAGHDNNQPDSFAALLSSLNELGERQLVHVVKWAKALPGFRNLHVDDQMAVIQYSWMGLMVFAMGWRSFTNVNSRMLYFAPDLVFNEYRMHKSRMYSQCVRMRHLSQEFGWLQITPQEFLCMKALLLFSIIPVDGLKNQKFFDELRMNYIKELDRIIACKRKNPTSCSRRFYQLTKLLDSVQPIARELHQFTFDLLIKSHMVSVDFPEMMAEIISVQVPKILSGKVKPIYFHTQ
Note: assay procedure not described here.

Compound: Nc1ccc(S(N)(=O)=O)cc1 [SULFANILAMIDE]
- AC50 (Adenosine receptor A1): > 30 µM

Compound: CN(C)c1ccc(C(=C2C=CC(=[N+](C)C)C=C2)c2ccc(N(C)C)cc2)cc1 [GENTIAN VIOLET]
- AC50 (D(3) dopamine receptor [1]): 1.21 µM
- AC50 [2]: 4.7 µM

- AC50 (D(3) dopamine receptor [3]): > 30 µM
- AC50 [4]: > 30 µM
- AC50 (Melanocortin receptor 3): > 30 µM
- AC50 [5]: > 30 µM
- AC50 [6]: > 30 µM
- AC50 [7]: > 30 µM
- AC50 [8]: > 30 µM
- AC50 (Androgen receptor): > 10 µM
Compound: HYDROXOCOBALAMIN
